Results taken from article PMC6093650, “Antidepressive and anxiolytic effects of ostruthin, a TREK-1 channel activator” (PLoS ONE, 2018).

How the values were obtained:
Kv1.4 = Kv1.4 (Homo sapiens, UniProt P22459); test: whole-cell patch-clamp of Kv1.4 currents in 293T cells; assay type: cell-based; details: n = 5
Source text: (§1) For recordings of K^+ channel currents, we prepared stable cell lines for TREK-1, TWIK-related acid-sensitive K^+ channel (TASK-1), strongly inwardly rectifying K^+ channel (Kir2.1), and human ether-a-go-go-related gene (HERG-1) channels and transiently expressed other channels in 293T cells using a calcium-phosphate transfection method. For the establishment of the stable lines, we used lentiviral vectors, and the preparation methods for the lentiviral vectors were described in our previous report. TR-1 cells, which stably expressed TREK-1 channel and were grown on a small cover glass (3 × 18 mm), were placed in a recording chamber with an internal volume of 200 μl. Whole-cell currents were recorded in Tyrode solution using an Axopatch 200B amplifier (Axon Instruments, Foster City, CA) at 25°C. Tyrode solution contained (in mM): NaCl 140, KCl 5.4, NaH2PO4 0.33, CaCl2 2, MgCl2 1, HEPES 5, and glucose 5.5 (pH 7.4 adjusted with NaOH). […] Perfusion (100 μl/min) was continued to maintain the water level throughout recordings. pH and osmotic pressure of solutions were measured with a pH meter (Horiba, Kyoto, Japan) and a freezing point osmometer (Knauer, Berlin, Germany), respectively. […]

HERG-3 = molecular target: T1, HERG-3 (Homo sapiens, UniProt Q9NS40); test: whole-cell patch-clamp of HERG-3 currents in 293T cells; assay type: cell-based; details: 100 μM (data not shown)
T1 construct: expressed in transfected cells; host or cells: 293T (transient, calcium-phosphate transfection)
T1 sequence (Q9NS40 1-1196): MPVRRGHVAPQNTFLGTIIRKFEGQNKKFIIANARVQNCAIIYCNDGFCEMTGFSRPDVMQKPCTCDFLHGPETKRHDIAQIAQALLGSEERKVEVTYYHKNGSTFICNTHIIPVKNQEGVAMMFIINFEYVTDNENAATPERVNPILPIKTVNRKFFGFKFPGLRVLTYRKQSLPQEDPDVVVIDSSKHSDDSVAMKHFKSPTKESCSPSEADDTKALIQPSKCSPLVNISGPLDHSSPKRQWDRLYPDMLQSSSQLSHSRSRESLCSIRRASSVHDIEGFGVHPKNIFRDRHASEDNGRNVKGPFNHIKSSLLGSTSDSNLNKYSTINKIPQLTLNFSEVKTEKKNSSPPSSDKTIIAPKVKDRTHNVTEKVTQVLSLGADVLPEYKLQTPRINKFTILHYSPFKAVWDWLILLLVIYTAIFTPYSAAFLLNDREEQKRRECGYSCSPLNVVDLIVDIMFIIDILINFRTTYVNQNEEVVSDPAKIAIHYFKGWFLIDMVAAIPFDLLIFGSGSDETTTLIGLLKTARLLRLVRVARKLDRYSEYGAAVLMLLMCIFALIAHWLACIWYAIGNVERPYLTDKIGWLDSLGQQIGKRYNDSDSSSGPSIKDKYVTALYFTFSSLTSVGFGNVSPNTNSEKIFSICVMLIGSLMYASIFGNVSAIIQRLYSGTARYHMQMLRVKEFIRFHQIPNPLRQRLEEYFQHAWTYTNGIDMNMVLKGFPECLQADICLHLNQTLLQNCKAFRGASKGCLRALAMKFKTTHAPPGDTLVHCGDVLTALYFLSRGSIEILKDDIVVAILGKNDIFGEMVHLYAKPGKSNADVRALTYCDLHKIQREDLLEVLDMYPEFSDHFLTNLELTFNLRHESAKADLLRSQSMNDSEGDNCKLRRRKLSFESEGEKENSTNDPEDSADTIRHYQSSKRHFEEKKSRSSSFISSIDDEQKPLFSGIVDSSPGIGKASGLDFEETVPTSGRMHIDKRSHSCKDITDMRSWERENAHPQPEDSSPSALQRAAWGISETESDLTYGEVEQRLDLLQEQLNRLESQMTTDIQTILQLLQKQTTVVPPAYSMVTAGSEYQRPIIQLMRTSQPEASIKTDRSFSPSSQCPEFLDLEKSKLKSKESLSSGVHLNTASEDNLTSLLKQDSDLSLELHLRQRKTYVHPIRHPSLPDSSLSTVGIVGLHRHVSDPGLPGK
Source text: as §1

[1] = tested on: mice anxiety-like behavior; test: open-field test; assay type: in vivo; details: n = 12
Source text: Male ICR mice (n = 317 in total) aged 5 weeks and weighing 32 ± 2 g were purchased from Shimizu Laboratory Supplies (Kyoto, Japan). For the social defeat stress test, we used 28 C57BL/6J mice (5 weeks old, Shimizu Laboratory Supplies) and 30 ICR mice (7–8 weeks old, Charles River Labs Japan, Yokohama, Kanagawa, Japan). Mice were maintained for at least 1 week prior to experiments. Animals were kept in groups in plastic cages. They had free access to food and water, and were kept in a 12-h light/dark cycle (08:00–20:00). Experiments were carried out between 10:00 and 18:00 in a quiet and air-conditioned experimental room, in which mice were habituated for at least 30 min before each experiment. Animal experiments were performed in accordance with the guidelines of the Physiological Society of Japan and were approved by the Committees on Animal Experiments at Kansai Medical University and the Kurashiki University of Science and the Arts. Ostruthin was initially dissolved in DMSO at higher concentration (100 mM) and then diluted in phosphate-buffered saline (PBS). The diluted solution was mixed vigorously for more than 10 min before the experiments, and an equal volume of DMSO was added to PBS as a control. PBS and ostruthin were administered intraperitoneally 30 min before mice behavioral tests (0.01 ml/g body weight). Each animal was used only once, except for the wheel running test, which was carried out immediately after elevated plus maze.
The open-field test was performed in accordance with a previous report with minor modifications. The open-field consisted of a square (90 × 90 cm), in which the floor was divided into 16 equal squares. After a mouse was placed in a corner of the open field facing the wall, the number of the entries into the central squares, and whole line crossings were counted for 5 min. After removal of animal, the apparatus was cleaned and wiped.

Chain of Kv1.4 (P22459 whole entry): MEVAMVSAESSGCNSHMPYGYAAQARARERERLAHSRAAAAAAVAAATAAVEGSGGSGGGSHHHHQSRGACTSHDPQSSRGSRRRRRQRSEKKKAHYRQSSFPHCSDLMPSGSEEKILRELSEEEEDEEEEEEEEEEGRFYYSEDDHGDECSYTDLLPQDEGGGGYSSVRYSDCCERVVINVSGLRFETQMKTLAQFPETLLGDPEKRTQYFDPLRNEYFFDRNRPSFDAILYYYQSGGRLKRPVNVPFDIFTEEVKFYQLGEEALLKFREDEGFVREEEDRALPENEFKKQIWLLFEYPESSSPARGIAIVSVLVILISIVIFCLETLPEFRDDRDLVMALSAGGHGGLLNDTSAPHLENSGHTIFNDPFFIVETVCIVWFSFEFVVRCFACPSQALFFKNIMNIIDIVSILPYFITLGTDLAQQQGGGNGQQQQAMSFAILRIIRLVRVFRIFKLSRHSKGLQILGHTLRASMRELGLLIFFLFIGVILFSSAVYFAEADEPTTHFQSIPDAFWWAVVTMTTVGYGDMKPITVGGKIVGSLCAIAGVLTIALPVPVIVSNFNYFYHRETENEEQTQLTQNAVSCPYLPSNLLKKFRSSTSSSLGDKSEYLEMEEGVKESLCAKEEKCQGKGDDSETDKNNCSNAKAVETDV

IC50 (Kv1.4): 269 µM
SMILES: CC(C)=CCC/C(C)=C/Cc1cc2ccc(=O)oc2cc1O [ostruthin]
effect on HERG-3 channels (HERG-3): no effect | number of entries to the central area ([1]; 20 mg/kg i.p. 30 min before test, vs 5 mg/kg): significantly decreased | total line crossings ([1]; 20 mg/kg i.p., vs 5 mg/kg): decrease | number of entries to the central area ([1]; 2 and 5 mg/kg i.p. 30 min before test, vs 0 mg/kg, 5 min): significantly increased | total line crossings ([1]; 2 and 5 mg/kg i.p. 30 min before test, vs 0 mg/kg): increased
